According to PubChem BioAssay AID1963962 (Molecular Pharmacology Branch, DTP, NCI, 2024):
Each block holds one compound with its values, some of them ahead of it.

System: 967376-340-R-J2-PDC multicell spheroid viability
Assay: Anticancer human tumor 967376-340-R-J2-PDC patient-derived colon adenocarcinoma cell line growth inhibition [PI3K]
Details: for IC50: curve of first compound; for viability, T/C: stronger effect = lower value
Text: Combinatorial screen of targeted agents with the PI3K inhibitors inavolisib, alpelisib, duvelisib, and copanlisib in multi-cell type tumor spheroids
A high-throughput screen of multi-cell type tumor spheroids was designed to identify active combinations of targeted small molecules and PI3K pathway inhibitors. Complex spheroids include a stromal component modeled by human endothelial cells (HUVEC) and fibroblasts modeled by human mesenchymal stem cells (MSCs). The concentration ranges selected for each drug and investigational agent were based upon clinically achievable concentrations if the clinical Cmax of the agent was known.
Compounds. The drugs and investigational agents: inavolisib (NSC800729), alpelisib (NSC765974), duvelisib (NSC772469), copanlisib (NSC816437), ipatasertib (NSC767898), afuresertib (NSC778305), talazoparib (NSC767125), sapanisertib (NSC764658), selumetinib (NSC741078), tovorafenib (DAY101, NSC766906), vemurafenib (NSC761431), ravoxertinib (NSC781343), sotorasib (NSC818433), MRTX1133 (NSC 836407), abemaciclib (NSC 768073), palbociclib (NSC758247), venetoclax (NSC 766270), SY5609 (NSC837396), enzalutamide (NSC755605), and darolutamide (NSC825331), were obtained from the National Cancer Institute (NCI) Developmental Therapeutics Program Chemical Repository. The FDA-approved anticancer drug set is available from the NCI Developmental Therapeutics Program. […] The stock solutions were prepared in dimethyl sulfoxide (DMSO, Sigma-Aldrich, St. Louis, MO, cat. D2650) at 800-fold the tested concentration and stored at -70 degrees C prior to their use. All drugs and investigational agents were tested over a range starting from a high concentration at or near the clinical Cmax and decreasing in half-log increments. If the clinical Cmax for an agent had not been determined, the highest concentration tested was 10 microM.
Cell Culture. All cells were maintained in an incubator at 37 degrees C and 5% CO2 with 95% humidity. The PDC lines were cultured according to standard operating procedures established by the NCI PDMR (https://pdmr.cancer.gov/sops/default.htm). All PDCs were thawed and cultured in Matrigel-coated flasks prepared with a working solution of 1X Ham's F-12 nutrient mix, without supplementation (Invitrogen, Waltham, MA, cat. 11765054), 100 U/mL penicillin-streptomycin (Invitrogen, cat. 15140122), and 2.5% Matrigel (Corning Inc., Corning, NY, cat. 354248) for the first three passages. The 354836-022-R-J1-PDC, 475296-252-R-J1-PDC, and 997726-040-R-J2-PDC lines were cultured in 6A media, which includes advanced DMEM/F-12 (Thermo Fisher Scientific, cat. 12634028), 10 mM HEPES (Thermo Fisher Scientific, cat. 15630080), 1X GlutaMAX supplement (Thermo Fisher Scientific, cat. 35050061), 0.1 mg/mL primocin (InvivoGen, San Diego, CA, cat. ant-pm-2), 10% defined fetal bovine serum, heat inactivated (HyClone Laboratories Inc., Logan, UT, cat. SH30070.03HI), 50% L-WRN conditioned media (ATCC, cat. CRL-3276), 1.25 mM N-Acetyl-L-cysteine (Sigma-Aldrich, cat. A9165), 10 mM nicotinamide (Sigma-Aldrich, cat. N0636), 1X B-27 supplement (Thermo Fisher Scientific, cat. 17504044), 1X N-2 supplement (Thermo Fisher Scientific, cat. 17502048), and 10 microM Y-27632 dihydrochloride (Tocris Bioscience, Bristol, United Kingdom, cat. 1254). The 624824-186-R-J2-PDC line was cultured in 6C/Colon 1B media, which includes all 6A media components plus 50 ng/mL human EGF recombinant protein (Thermo Fisher Scientific, cat. PHG0311). […]

[1] = second compound 0.00316 µM, first compound 0.0316 µM
[2] = second compound 0.00316 µM, first compound 0.1 µM
[3] = second compound 0.00316 µM, first compound 0.316 µM
[4] = second compound 0.00316 µM, first compound 1 µM
[5] = second compound 0.00316 µM, first compound 3.16 µM
[6] = second compound 0.00316 µM, first compound 10 µM
[7] = second compound 0.01 µM, first compound 0.0316 µM
[8] = second compound 0.01 µM, first compound 0.1 µM
[9] = second compound 0.01 µM, first compound 0.316 µM
[10] = second compound 0.01 µM, first compound 1 µM
[11] = second compound 0.01 µM, first compound 3.16 µM
[12] = second compound 0.01 µM, first compound 10 µM
[13] = second compound 0.0316 µM, first compound 0.0316 µM
[14] = second compound 0.0316 µM, first compound 0.1 µM
[15] = second compound 0.0316 µM, first compound 0.316 µM
[16] = second compound 0.0316 µM, first compound 1 µM
[17] = second compound 0.0316 µM, first compound 3.16 µM
[18] = second compound 0.0316 µM, first compound 10 µM
[19] = second compound 0.1 µM, first compound 0.0316 µM
[20] = second compound 0.1 µM, first compound 0.1 µM
[21] = second compound 0.1 µM, first compound 0.316 µM
[22] = second compound 0.1 µM, first compound 1 µM
[23] = second compound 0.1 µM, first compound 3.16 µM
[24] = second compound 0.1 µM, first compound 10 µM
[25] = second compound 0.316 µM, first compound 0.0316 µM
[26] = second compound 0.316 µM, first compound 0.1 µM
[27] = second compound 0.316 µM, first compound 0.316 µM
[28] = second compound 0.316 µM, first compound 1 µM
[29] = second compound 0.316 µM, first compound 3.16 µM
[30] = second compound 0.316 µM, first compound 10 µM
[31] = second compound 1 µM, first compound 0.0316 µM
[32] = second compound 1 µM, first compound 0.1 µM
[33] = second compound 1 µM, first compound 0.316 µM
[34] = second compound 1 µM, first compound 1 µM
[35] = second compound 1 µM, first compound 3.16 µM
[36] = second compound 1 µM, first compound 10 µM
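Also: spheroids exposed to agents for 7 days before read-out.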
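For viability, T/C in this document: luminescence used as surrogate of cell viability.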

- IC50 (second compound 0.00316 µM): > 10 µM
- IC50 (second compound 0.01 µM): > 10 µM
- IC50 (second compound 0.0316 µM): > 10 µM
- IC50 (second compound 0.1 µM): > 10 µM
- IC50 (second compound 0.316 µM): > 10 µM
- IC50 (second compound 1 µM): 7.61 µM
SMILES: CC(C)NCC(C(=O)N1CCN(c2ncnc3c2C(C)CC3O)CC1)c1ccc(Cl)cc1 (stereo unspecified) + CC(Nc1ccc2c(c1)OCCn1cc(N3C(=O)OCC3C(F)F)nc1-2)C(N)=O
- viability, T/C [1]: 98.4%
- viability, T/C [2]: 118%
- viability, T/C [3]: 71.2%
- viability, T/C [4]: 76.8%
- viability, T/C [5]: 91.9%
- viability, T/C [6]: 77.9%
- viability, T/C [7]: 79.3%
- viability, T/C [8]: 86.5%
- viability, T/C [9]: 74.4%
- viability, T/C [10]: 84.7%
- viability, T/C [11]: 83.4%
- viability, T/C [12]: 81.2%
- viability, T/C [13]: 68.5%
- viability, T/C [14]: 90.4%
- viability, T/C [15]: 59.4%
- viability, T/C [16]: 77.1%
- viability, T/C [17]: 73.5%
- viability, T/C [18]: 60.9%
- viability, T/C [19]: 60.1%
- viability, T/C [20]: 82%
- viability, T/C [21]: 68.6%
- viability, T/C [22]: 72.4%
- viability, T/C [23]: 83.9%
- viability, T/C [24]: 64%
- viability, T/C [25]: 57.5%
- viability, T/C [26]: 60.7%
- viability, T/C [27]: 57.6%
- viability, T/C [28]: 65.5%
- viability, T/C [29]: 57.8%
- viability, T/C [30]: 62.8%
- viability, T/C [31]: 51.4%
- viability, T/C [32]: 59.2%
- viability, T/C [33]: 67.6%
- viability, T/C [34]: 60.8%
- viability, T/C [35]: 57.3%
- viability, T/C [36]: 37.2%

- IC50 (second compound 0.00316 µM): > 1 µM
- IC50 (second compound 0.01 µM): > 1 µM
- IC50 (second compound 0.0316 µM): > 1 µM
- IC50 (second compound 0.1 µM): 0.793 µM
- IC50 (second compound 0.316 µM): 0.109 µM
- IC50 (second compound 1 µM): 0.0551 µM
SMILES: CCN1CCN(Cc2ccc(Nc3ncc(F)c(-c4cc(F)c5nc(C)n(C(C)C)c5c4)n3)nc2)CC1 + CC(Nc1ccc2c(c1)OCCn1cc(N3C(=O)OCC3C(F)F)nc1-2)C(N)=O
- viability, T/C (second compound 0.00316 µM, first compound 0.00316 µM): 94.2%
- viability, T/C (second compound 0.00316 µM, first compound 0.01 µM): 73.2%
- viability, T/C [1]: 86.9%
- viability, T/C [2]: 75.2%
- viability, T/C [3]: 80.9%
- viability, T/C [4]: 70.5%
- viability, T/C (second compound 0.01 µM, first compound 0.00316 µM): 94.9%
- viability, T/C (second compound 0.01 µM, first compound 0.01 µM): 74.8%
- viability, T/C [7]: 71.4%
- viability, T/C [8]: 93.2%
- viability, T/C [9]: 69.5%
- viability, T/C [10]: 67.7%
- viability, T/C (second compound 0.0316 µM, first compound 0.00316 µM): 77.6%
- viability, T/C (second compound 0.0316 µM, first compound 0.01 µM): 81.3%
- viability, T/C [13]: 79.2%
- viability, T/C [14]: 86.8%
- viability, T/C [15]: 63.4%
- viability, T/C [16]: 52.3%
- viability, T/C (second compound 0.1 µM, first compound 0.00316 µM): 62.7%
- viability, T/C (second compound 0.1 µM, first compound 0.01 µM): 64.6%
- viability, T/C [19]: 69.8%
- viability, T/C [20]: 65.1%
- viability, T/C [21]: 47.3%
- viability, T/C [22]: 51.3%
- viability, T/C (second compound 0.316 µM, first compound 0.00316 µM): 62.7%
- viability, T/C (second compound 0.316 µM, first compound 0.01 µM): 54.9%
- viability, T/C [25]: 57.4%
- viability, T/C [26]: 47.5%
- viability, T/C [27]: 48.6%
- viability, T/C [28]: 42.5%
- viability, T/C (second compound 1 µM, first compound 0.00316 µM): 59.4%
- viability, T/C (second compound 1 µM, first compound 0.01 µM): 52.2%
- viability, T/C [31]: 54.2%
- viability, T/C [32]: 49.3%
- viability, T/C [33]: 35.5%
- viability, T/C [34]: 26%

- IC50 (second compound 0.00316 µM): > 10 µM
- IC50 (second compound 0.01 µM): > 10 µM
- IC50 (second compound 0.0316 µM): > 10 µM
- IC50 (second compound 0.1 µM): > 10 µM
- IC50 (second compound 0.316 µM): > 10 µM
- IC50 (second compound 1 µM): 4.19 µM
SMILES: Cn1ncc(Cl)c1-c1cc(C(=O)NC(CN)Cc2cccc(F)c2)sc1Cl (stereo unspecified) + CC(Nc1ccc2c(c1)OCCn1cc(N3C(=O)OCC3C(F)F)nc1-2)C(N)=O
- viability, T/C [1]: 102%
- viability, T/C [2]: 94.4%
- viability, T/C [3]: 86.6%
- viability, T/C [4]: 75%
- viability, T/C [5]: 71%
- viability, T/C [6]: 61.3%
- viability, T/C [7]: 92.3%
- viability, T/C [8]: 93.3%
- viability, T/C [9]: 90.8%
- viability, T/C [10]: 67.1%
- viability, T/C [11]: 67.8%
- viability, T/C [12]: 71.3%
- viability, T/C [13]: 91.2%
- viability, T/C [14]: 98%
- viability, T/C [15]: 75.2%
- viability, T/C [16]: 83.2%
- viability, T/C [17]: 67.4%
- viability, T/C [18]: 55.8%
- viability, T/C [19]: 83.5%
- viability, T/C [20]: 72.5%
- viability, T/C [21]: 87.7%
- viability, T/C [22]: 65%
- viability, T/C [23]: 55.8%
- viability, T/C [24]: 57.8%
- viability, T/C [25]: 68%
- viability, T/C [26]: 66.9%
- viability, T/C [27]: 59.2%
- viability, T/C [28]: 67.8%
- viability, T/C [29]: 59.9%
- viability, T/C [30]: 45.9%
- viability, T/C [31]: 63.1%
- viability, T/C [32]: 49.3%
- viability, T/C [33]: 53.9%
- viability, T/C [34]: 68.1%
- viability, T/C [35]: 53.9%
- viability, T/C [36]: 38.5%
